Read-outs that look alike come from different tables or passages of the source.

Assay [1] deals with T1, human recombinant adrenergic α2B receptor (Homo sapiens, UniProt P18089).
T1 construct: expressed in transfected cells; host or cells: CHO-K1
T1 sequence (P18089 1-450): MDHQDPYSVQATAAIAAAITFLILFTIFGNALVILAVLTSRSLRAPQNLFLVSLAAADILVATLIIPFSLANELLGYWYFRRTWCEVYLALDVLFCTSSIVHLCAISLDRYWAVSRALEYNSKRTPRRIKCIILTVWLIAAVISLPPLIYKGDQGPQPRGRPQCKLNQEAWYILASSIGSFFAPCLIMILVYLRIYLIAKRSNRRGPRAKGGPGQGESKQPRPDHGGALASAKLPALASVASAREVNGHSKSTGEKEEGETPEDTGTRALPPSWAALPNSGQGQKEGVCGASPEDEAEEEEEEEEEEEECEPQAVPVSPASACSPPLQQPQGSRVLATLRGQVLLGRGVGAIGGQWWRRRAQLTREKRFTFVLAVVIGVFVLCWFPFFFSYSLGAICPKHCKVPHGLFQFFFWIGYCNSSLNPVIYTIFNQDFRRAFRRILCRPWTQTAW
The experiment in a line: Radioligand binding, adrenergic α2B ([3H]Rauwolscine). The method in brief: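 Values are percent inhibition of specific radioligand binding. The receptor, expressed in CHO-K1 cells, was exposed to 2.5 nM [3H]Rauwolscine at 25° C for 60 min, with 10 μM Prazosin marking non-specific binding.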

Assay [2] addresses T2, human recombinant adrenergic α2A receptor (Homo sapiens, UniProt P08913).
T2 construct: expressed in transfected cells; host or cells: insect Sf9 cells
T2 sequence (P08913 1-465): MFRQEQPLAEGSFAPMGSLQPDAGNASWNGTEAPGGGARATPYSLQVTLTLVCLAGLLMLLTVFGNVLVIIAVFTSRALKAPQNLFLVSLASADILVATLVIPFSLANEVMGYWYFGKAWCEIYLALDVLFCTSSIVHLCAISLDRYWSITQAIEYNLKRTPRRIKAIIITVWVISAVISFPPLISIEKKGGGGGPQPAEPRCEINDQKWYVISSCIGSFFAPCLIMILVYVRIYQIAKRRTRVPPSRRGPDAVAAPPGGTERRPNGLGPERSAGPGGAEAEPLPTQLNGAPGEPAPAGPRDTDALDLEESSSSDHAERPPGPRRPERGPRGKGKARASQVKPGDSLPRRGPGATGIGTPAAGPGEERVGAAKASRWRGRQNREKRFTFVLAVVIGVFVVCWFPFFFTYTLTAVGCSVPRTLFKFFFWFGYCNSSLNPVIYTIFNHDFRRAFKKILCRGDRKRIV
Nature of the assay: Radioligand binding, adrenergic α2A ([3H]MK-912). The method in brief:
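Sf9-expressed receptor was incubated with compound for 60 min at 25 °C in modified Tris-HCl buffer, pH 7.4. Nonspecific binding was taken as that remaining with 10 μM WB-4101.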

The target in assay [3] is T3, rat adrenergic α1B receptor (Rattus norvegicus, UniProt P15823).
T3 construct: rat adrenergic α1B receptor obtained from Wistar Rat liver; from tissue; host or cells: Wistar rat liver
T3 sequence (P15823 1-515): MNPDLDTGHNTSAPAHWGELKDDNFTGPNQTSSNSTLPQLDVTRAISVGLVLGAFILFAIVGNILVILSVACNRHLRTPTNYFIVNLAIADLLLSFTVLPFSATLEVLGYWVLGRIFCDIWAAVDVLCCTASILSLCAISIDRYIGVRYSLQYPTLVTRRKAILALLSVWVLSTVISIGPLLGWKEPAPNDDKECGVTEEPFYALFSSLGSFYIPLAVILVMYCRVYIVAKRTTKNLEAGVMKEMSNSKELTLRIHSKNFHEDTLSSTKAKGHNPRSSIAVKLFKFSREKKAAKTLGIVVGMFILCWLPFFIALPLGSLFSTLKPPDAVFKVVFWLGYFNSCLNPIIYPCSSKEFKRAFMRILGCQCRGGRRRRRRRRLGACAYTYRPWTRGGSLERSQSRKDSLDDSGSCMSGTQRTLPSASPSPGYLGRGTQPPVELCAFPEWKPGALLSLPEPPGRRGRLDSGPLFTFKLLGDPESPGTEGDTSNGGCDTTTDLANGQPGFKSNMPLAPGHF
Nature of the assay: Radioligand binding, adrenergic α1B ([3H]Prazosin). The method in brief: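 Incubation ran 60 min at 25 °C in Tris-HCl buffer (50 mM, pH 7.4, 0.5 mM EDTA) with Wistar rat liver α1B receptor. 10 μM phentolamine set non-specific binding.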

Assay [4] concerns the target T4, human recombinant adrenergic α1D receptor (Homo sapiens, UniProt P25100).
T4 construct: expressed in transfected cells; host or cells: HEK-293
T4 sequence (P25100 1-572): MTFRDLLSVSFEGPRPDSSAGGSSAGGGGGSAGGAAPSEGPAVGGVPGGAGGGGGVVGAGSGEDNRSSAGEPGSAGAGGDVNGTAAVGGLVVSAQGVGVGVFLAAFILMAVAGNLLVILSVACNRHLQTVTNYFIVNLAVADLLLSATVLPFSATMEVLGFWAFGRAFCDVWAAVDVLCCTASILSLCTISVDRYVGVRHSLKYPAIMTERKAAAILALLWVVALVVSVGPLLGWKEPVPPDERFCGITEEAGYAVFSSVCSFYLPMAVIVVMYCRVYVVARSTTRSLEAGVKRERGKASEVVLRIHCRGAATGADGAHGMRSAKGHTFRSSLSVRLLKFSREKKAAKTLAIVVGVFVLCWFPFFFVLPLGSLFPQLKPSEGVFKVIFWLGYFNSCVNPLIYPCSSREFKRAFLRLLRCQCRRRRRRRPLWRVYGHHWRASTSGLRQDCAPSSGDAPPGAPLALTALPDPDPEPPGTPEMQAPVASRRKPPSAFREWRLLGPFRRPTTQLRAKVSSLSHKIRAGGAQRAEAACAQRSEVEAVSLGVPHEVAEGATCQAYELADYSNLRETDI
The experiment in a line: Radioligand binding, adrenergic α1D ([3H]Prazosin). On the procedure: Compounds were incubated with 0.6 nM [3H]Prazosin for 60 min at 25° C. Non-specific binding was estimated in the presence of 10 μM phentolamine. Receptor proteins were filtered and washed, the filters were then counted to determine [3H]Prazosin specifically bound. […] Biochemical assay results are presented as the percent inhibition of specific binding in Table B1.

[5] abbreviates: read-out: Percentage inhibition of ligand binding, Adrenergic α2B (0.1 μM), compound at 0.1 μM, [3H]Rauwolscine, repeat datapoints each shown.
The mark [6] stands for this setting: read-out: Percentage inhibition of ligand binding, Adrenergic α2A (0.1 μM), compound at 0.1 μM, [3H]MK-912, repeat datapoints each shown.
The mark [7] stands for this setting: read-out: Percentage inhibition of ligand binding, Adrenergic α1B (0.1 μM), compound at 0.1 μM, [3H]Prazosin, repeat datapoints each shown.
[8] abbreviates: read-out: Percentage inhibition of ligand binding, Adrenergic α1D (0.1 μM), compound at 0.1 μM, [3H]Prazosin, repeat datapoints each shown.
Setting [9] is: 0.1 μM compound, read-out: Percentage inhibition of ligand binding, Adrenergic α2B.
[10] abbreviates: 0.1 μM compound, read-out: Percentage inhibition of ligand binding, Adrenergic α2A.
[11] abbreviates: 0.1 μM compound, read-out: Percentage inhibition of ligand binding, Adrenergic α1B.
Where [12] appears, read: 0.1 μM compound, read-out: Percentage inhibition of ligand binding, Adrenergic α1D.

For the compound `Cc1cnc2c(c1)c1c(n2CCc2ccc(C)nc2)CC2CCCN2C1` (centres unmarked) [II-235], the inhibition at 0.1 µM came to 45% in assay [1] (setting [5]), 3% in assay [2] (setting [6]), 58% in assay [3] (setting [7]) and 28% in assay [4] (setting [8]).
With `Cc1ccc(CCn2c3c(c4cc(Cl)ccc42)CN(C)CC3)cc1` [compound 208], the inhibition at 0.1 µM in assay [1] (setting [5]) was found to be 97%; in assay [2] (setting [6]), 101%. The inhibition at 0.03 µM in assay [3] (read-out: Percentage inhibition of ligand binding, Adrenergic α1B (0.03 μM), compound at 0.03 μM, [3H]Prazosin, repeat datapoints each shown) is 60%; in assay [4] (read-out: Percentage inhibition of ligand binding, Adrenergic α1D (0.03 μM), compound at 0.03 μM, [3H]Prazosin, repeat datapoints each shown), 41%.
`C/C(=C\n1c2c(c3cc(C)ccc31)CN(C)CC2)c1cccc(F)c1` [compound 237]: the inhibition at 0.1 µM came out at 99% in assay [1] (setting [5]), 98% in assay [2] (setting [6]), 80% in assay [3] (setting [7]) and 52% in assay [4] (setting [8]).
In the case of `CNC(=O)c1ccc(/C(C)=C/n2c3c(c4cc(C)ccc42)CN(C)CC3)cn1` [compound 122], the inhibition at 0.1 µM in assay [1] (setting [5]) was 96%; in assay [2] (setting [6]) it was 13%; in assay [3] (setting [7]) it was 51%; in assay [4] (setting [8]) it was 84%.
In the case of `C/C(=C/n1c2c(c3cc(Cl)ccc31)CCN(C)CC2)c1ccc(Cl)cc1Cl` [compound 228], the inhibition at 0.1 µM in assay [1] (setting [5]) came to 42%; in assay [2] (setting [6]), 77%; in assay [3] (setting [7]), 64%; in assay [4] (setting [8]) it was 19%.
Take `C/C(=C\n1c2c(c3cc(C)ccc31)CN(C)CC2)c1ccc(C)s1` [compound 278]: the inhibition at 0.1 µM in assay [1] (setting [9]) came to 98%; in assay [2] (setting [10]), 93%; in assay [3] (setting [11]), 62%; in assay [4] (setting [12]) it was 44%.
For `Cc1ccc2c(c1)c1c(n2C2=C(c3cc4ccccc4s3)CCC2)CCN(C)C1` [compound 305, 5-(2-(benzo[b]thiophen-2-yl)cyclopent-1-enyl)-2,8-dimethyl-2,3,4,5-tetrahydro-1H-pyrido[4,3-b]indole] the same measures were 79%, 93%, 20% and 41%.
With `COc1ccc(/C(C)=C/n2c3c(c4cc(C)ccc42)CCN(C)CC3)c(F)c1` [compound 222], the inhibition at 0.1 µM in assay [1] (setting [5]) worked out at 104%; in assay [2] (setting [6]) it was 96%; in assay [3] (setting [7]), 95%; in assay [4] (setting [8]) it was 101%.
As to `C/C(=C/n1c2c(c3cc(C)ccc31)CN(C)CC2)c1cccc2ccccc12` [compound 286], the inhibition at 0.1 µM was 60% in assay [1] (setting [9]), 80% in assay [2] (setting [10]), 26% in assay [3] (setting [11]) and 19% in assay [4] (setting [12]).
Taken in the same sequence, the figures for `C/C(=C\n1c2c(c3cc(C)ccc31)CN(C)CC2)c1ccc2ccccc2c1` [compound 270] were 76%, 96%, 50% and 66%.
Regarding `C/C(=C\n1c2c(c3cc(C)ccc31)CCN(C)CC2)c1ccncc1` [compound 99], the inhibition at 0.1 µM in assay [1] (setting [5]) came out at 85%; in assay [2] (setting [6]) it was 29%; in assay [3] (setting [7]), 69%; in assay [4] (setting [8]), 34%.
`C/C(=C/n1c2c(c3cc(C)ccc31)CN(C)CC2)c1ccc2ccn(C)c2c1` [compound 284]: the inhibition at 0.1 µM came to 76% in assay [1] (setting [9]), 97% in assay [2] (setting [10]), 83% in assay [3] (setting [11]) and 81% in assay [4] (setting [12]).
For `C/C(=C/n1c2c(c3cc(C)ccc31)CN(C)CC2)c1ccc(C)s1` [compound 277] the same measures were 97%, 98%, 71% and 84%.
Consider `CN1CCc2c(c3cc(Cl)ccc3n2CCC(=O)OCC2CCCCC2)C1` [compound 87], for which the inhibition at 0.1 µM in assay [1] (compound at 0.1 μM, [3H]Rauwolscine, repeat assays, each datapoint shown, read-out: Percentage inhibition of ligand binding, Adrenergic α2B) was found to be 66%; in assay [2] (compound at 0.1 μM, [3H]MK-912, repeat assays, each datapoint shown, read-out: Percentage inhibition of ligand binding, Adrenergic α2A), 14%; in assay [3] (compound at 0.1 μM, [3H]Prazosin, repeat assays, each datapoint shown, read-out: Percentage inhibition of ligand binding, Adrenergic α1B), 5%; in assay [4] (compound at 0.1 μM, [3H]Prazosin, repeat assays, each datapoint shown, read-out: Percentage inhibition of ligand binding, Adrenergic α1D) it was 24%.
On to `CC(Cn1c2c(c3ccccc31)CN(C)CC2)c1ccc(F)cc1` (single isomer, unassigned) [272a], for which the “Percentage inhibition of ligand binding, Adrenergic α2B” value in assay [1] (0.1 μM compound) is given as −10%. Further, the “Percentage inhibition of ligand binding, Adrenergic α2A” value in assay [2] (0.1 μM compound, 0.1 µM) was found to be 33%. Moreover, in assay [3] (setting [11]), the inhibition at 0.1 µM came out at 27%. The “Percentage inhibition of ligand binding, Adrenergic α1D” value in assay [4] (0.1 μM compound, 0.1 µM) was determined as 12%.
For `COc1cc(/C(C)=C/n2c3c(c4cc(C)ccc42)CN(C)CC3)ccn1` [compound 269], the inhibition at 0.1 µM turned out to be 83% in assay [1] (setting [9]), 61% in assay [2] (setting [10]), 36% in assay [3] (setting [11]) and 44% in assay [4] (setting [12]).
Consider `Cc1ccc(CCn2c3c(c4cccnc42)C2CCCN2CC3)cn1` (centres unmarked) [IV-4], for which the inhibition at 0.1 µM in assay [1] (setting [5]) was 56%; in assay [2] (setting [6]) it was -3%; in assay [3] (setting [7]) it was 2%; in assay [4] (setting [8]), 15%.

One may read the inhibition as the change of the read-out against control, counted positive when it falls.

These data come from patent US8791132B2, “Compounds and methods for treatment of hypertension” (Medivation Technologies, Inc., priority 2011, dated 2014).
